{"source": "paper PMC9841525", "about": "“Chemical Blockage of the Mitochondrial Rhomboid Protease PARL by Novel Ketoamide Inhibitors Reveals Its Role in PINK1/Parkin-Dependent Mitophagy” (Journal of Medicinal Chemistry, 2022)", "test_system": "Parkin", "test": "Parkin recruitment to mitochondria, subcellular fractionation and immunoblot", "format": "cell-based, human", "settings": "HEK293 T-REx PINK1 cells, HA-Parkin-IRES-GFP; 5 μM compound 5, CCCP 10 μM or Antimycin A 30 μM", "protocol": "Inducible stable Flp-In HEK293 T-REx cells expressing PINK1 were described previously.[33] HEK293 T-REx PINK1 and HEK293T cells were grown in DMEM (Gibco) supplemented with 10% (v/v) fetal bovine serum (ThermoFisher), 1% (v/v) GlutaMAX (Gibco), 1% (v/v) sodium pyruvate (Gibco), 125 μg/mL hygromycin (Invitrogen), and 10 μg/mL blasticidin (Gibco) or DMEM supplemented with 10% (v/v) fetal bovine serum, respectively, at 37 °C in 5% (v/v) CO2. For microscopy, cells were seeded on poly-L-lysine (Sigma)-coated slides. Transient plasmid transfections were performed using 25 kDa linear polyethylenimine (Polysciences). Plasmid (100 ng) encoding HA-Parkin-IRES-GFP, mito-mCherry or Parkin-mEGFP, or 500 ng plasmid encoding PGAM5-FLAG were used per 6-well. Total transfected DNA was 2 μg/well. For siRNA transfection, 2 × 10^5 cells were seeded per 6-well and on the next day transfected with 20 nM siRNA-oligonucleotide using lipofectamine RNAiMAX (ThermoFisher). Cells were analyzed 27 h post-transfection or five days post-siRNA-transfection. HEK293 T-REx PINK1 cells were induced with 0.3 μg/mL doxycycline for 24 h before further processing. Hoechst staining (1 μg/mL) was done immediately before adding treatment to the cells. Treatments were administered for the indicated times before processing; CCCP (Sigma) was always used as 10 μM for 3 h and Antimycin A (Sigma) as 30 μM for 3 h.\nUnless mentioned otherwise, all steps were performed at 4 °C. For subcellular fractionation to separate cellular content into cytosolic and mitochondrial fractions, cells were washed with PBS, harvested in PBS-EDTA (1 mM EDTA, 0.2 g/L D-glucose), and centrifuged at 500 × g for 5 min. […]\nFor immunoblot analysis in other cases, cells were either processed as described above or washed with PBS and directly lysed with Tris-glycine SDS-PAGE sample buffer and heated for 15 min at 65 °C. […] For quantification, ImageJ was used (http://rsb.info.nih.gov/ij/). […]", "note": "*1 amine or outer side, *2 acyl side, *3 side chain or, on linkers, in order; H or OH if unused. Where a SMILES comes first, the peptide text is derived from it. [ ]: non-standard residue; d: D form. The star is where a group is joined. NH(4-phenylbutyl) = c1ccc(CCCCN*)cc1; X1 = C[C@H](N[*:1])C(=O)C(=O)[*:2]", "data": [{"smiles": "CC(=O)N[C@@H](C)C(=O)N[C@H](C(=O)N[C@@H](Cc1ccccc1)C(=O)N[C@@H](CC(C)C)C(=O)N[C@@H](C)C(=O)C(=O)NCCCCc1ccccc1)C(C)C", "note": "[compound 5] (Ac-AVFL[X1]-{NH(4-phenylbutyl)})", "values": [{"measurement": "Parkin recruitment to the mitochondrial fraction", "result": "Parkin recruitment to the mitochondrial fraction, albeit in a lower quantity than in the two chemically induced stress conditions"}]}]}
